# Experiments:
# Assay in all cases: relative viability (nuclei count vs DMSO), 5 days (fraction); higher = more cells survive
# DM3189 + Olaparib = compound: C1CN(CCN1)C2=CC=C(C=C2)C3=CN4C(=C(C=N4)C5=CC=NC6=CC=CC=C56)N=C3 [DM3189] + O=C(c1cc(Cc2n[nH]c(=O)c3ccccc23)ccc1F)N1CCN(C(=O)C2CC2)CC1 [Olaparib] (partner 8 µM)
# Outline: (§1)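 Nuclei were stained with Hoechst during a one-step fixation (final 0.05% Triton X-100, 1% formaldehyde, 1 ug/ml Hoechst) carried out 5 days after dosing, then counted on 4× images. The cells, lung cancer lines in 1536-well plates, had been dosed by pin tool the day after seeding with one drug alone or a fixed anchor-drug dose plus five library-drug doses (not always all listed) in √10 steps. Relative viability is the nuclei count in treated wells divided by that in vehicle wells, and each value is the median of duplicate plates.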
# DM3189 + Alpelisib = compound: C1CN(CCN1)C2=CC=C(C=C2)C3=CN4C(=C(C=N4)C5=CC=NC6=CC=CC=C56)N=C3 [DM3189] + Cc1nc(NC(=O)N2CCC[C@H]2C(N)=O)sc1-c1ccnc(C(C)(C)C(F)(F)F)c1 [Alpelisib] (partner 2 µM)
# Outline: as §1
# DM3189 + Crizotinib = compound: C1CN(CCN1)C2=CC=C(C=C2)C3=CN4C(=C(C=N4)C5=CC=NC6=CC=CC=C56)N=C3 [DM3189] + C[C@@H](Oc1cc(-c2cnn(C3CCNCC3)c2)cnc1N)c1c(Cl)ccc(F)c1Cl [Crizotinib] (partner 1 µM)
# Outline: as §1
# DM3189 + Dasatinib = compound: C1CN(CCN1)C2=CC=C(C=C2)C3=CN4C(=C(C=N4)C5=CC=NC6=CC=CC=C56)N=C3 [DM3189] + Cc1nc(Nc2ncc(C(=O)Nc3c(C)cccc3Cl)s2)cc(N2CCN(CCO)CC2)n1 [Dasatinib] (partner 0.075 µM)
# Outline: as §1
# DM3189 = compound: C1CN(CCN1)C2=CC=C(C=C2)C3=CN4C(=C(C=N4)C5=CC=NC6=CC=CC=C56)N=C3 [DM3189]
# Outline: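 Lung cancer cell lines received five library-drug doses (not always all listed) spaced by √10, pinned on vehicle-anchored 1536-well plates after an overnight stay at 37 °C. Five days later, with no medium change, nuclei were Hoechst-stained, imaged at 4× and counted with MetaXpress. Viability is treated-well nuclei relative to vehicle-well nuclei, as a median across plates. Passing plates had control CV below 25% and at least one doubling.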
Cell Line,relative viability (DM3189 + Olaparib; first compound 0.08 µM),relative viability (DM3189 + Olaparib; first compound 0.253 µM),relative viability (DM3189 + Olaparib; first compound 0.8 µM),relative viability (DM3189 + Olaparib; first compound 2.53 µM),relative viability (DM3189 + Alpelisib; first compound 0.08 µM),relative viability (DM3189 + Alpelisib; first compound 0.253 µM),relative viability (DM3189 + Alpelisib; first compound 2.53 µM),relative viability (DM3189 + Crizotinib; first compound 0.08 µM),relative viability (DM3189 + Crizotinib; first compound 0.253 µM),relative viability (DM3189 + Crizotinib; first compound 2.53 µM),relative viability (DM3189 + Dasatinib; first compound 0.08 µM),relative viability (DM3189 + Dasatinib; first compound 0.253 µM),relative viability (DM3189 + Dasatinib; first compound 0.8 µM),relative viability (DM3189 + Dasatinib; first compound 2.53 µM),relative viability (DM3189; 0.08 µM),relative viability (DM3189; 0.253 µM),relative viability (DM3189; 0.8 µM),relative viability (DM3189; 2.53 µM),relative viability (DM3189 + Alpelisib; first compound 0.8 µM),relative viability (DM3189 + Crizotinib; first compound 0.8 µM)
HCC-78,0.763,0.659,0.586,0.944,0.635,0.315,0.311,0.314,0.328,0.317,0.362,0.495,0.393,0.381,1.03,0.925,0.845,0.933,,
HCC-366,0.312,0.325,0.311,0.416,0.417,0.436,0.423,0.475,0.574,0.771,0.943,0.759,,0.846,1.05,0.905,0.925,0.989,0.167,0.372
HCC-827,0.665,0.573,0.511,0.698,1.1,0.888,1.03,0.896,0.89,0.896,0.378,0.276,0.317,0.378,1.02,1,0.956,0.983,0.847,0.866
HOP-62,0.347,0.547,0.167,0.404,1.29,1.11,0.911,1,0.866,0.75,0.78,0.65,0.716,0.68,1.08,0.945,0.932,1.03,0.773,0.939
IA-LM,0.999,1.02,0.821,1.2,1.24,0.581,1.31,0.857,,1.11,,,,,1.2,1.11,1.06,1.21,0.963,1.01
LC-2-ad,0.713,0.66,0.652,0.747,0.822,0.76,0.71,0.419,0.458,0.378,0.636,0.487,0.458,0.572,1.07,1,0.874,1.05,0.857,0.382
LCLC-97TM1,0.415,0.314,0.281,0.397,0.163,0.239,0.185,0.304,0.249,0.313,0.768,0.591,0.591,0.375,1.06,0.806,0.797,0.644,0.219,0.297
LCLC-103H,0.78,0.713,0.736,0.75,0.994,0.979,0.975,1.01,1.01,1.05,0.607,0.457,0.393,0.339,1.06,0.935,0.951,1.02,0.912,0.963
LK-2,0.626,0.613,0.388,0.489,1.05,0.6,0.564,0.234,0.241,0.214,0.294,0.287,0.221,0.29,0.687,0.657,0.633,0.537,0.445,0.22
LOU-NH91,0.921,0.896,0.76,0.92,0.765,0.702,0.683,0.754,0.709,0.727,0.688,0.541,0.51,0.475,1.16,0.921,0.832,0.924,0.668,0.718
LU99A,0.296,0.274,,0.264,0.468,0.422,0.384,0.573,0.527,0.509,0.748,0.565,,0.595,1.05,0.912,,0.933,,
LXF-289,1.08,1.06,1.06,1.11,1.03,1.03,1.14,0.796,0.793,0.947,0.264,0.197,0.189,0.223,0.996,1.04,0.973,1.14,1.01,0.781
NCI-H522,0.663,0.651,0.607,0.709,,,,,,,1.04,0.929,0.838,0.8,1.27,0.891,0.882,0.886,,
NCI-H1395,0.421,0.463,,0.39,0.927,0.871,1.34,,,,0.461,0.39,0.397,0.415,1.03,0.834,0.697,0.945,1.04,
NCI-H1650,0.801,0.712,0.738,0.838,,,,0.896,0.851,0.717,0.333,0.391,0.304,0.316,1.09,0.923,0.901,0.928,,1.15
NCI-H1793,0.998,0.943,0.702,1.15,0.758,0.877,1.16,,,,0.423,0.368,0.371,0.361,1.22,0.991,0.929,1.01,0.982,
SW 900,0.801,,0.886,0.897,,,,,,,0.733,0.373,0.449,0.567,1.06,0.694,0.882,0.887,,
